Earlier results on one compound are cited in patent US9314021B2, “Formulations containing insect repellent compounds” (E I DU PONT DE NEMOURS AND COMPANY, priority 2004, dated 2016).

The data set concerns ant species Monomorium destructor. The settings on record: pure undiluted compound; after 25 seconds of exposure; during feeding.

Turning to `CC1COC(=O)C2C(C)CCC12` (stereo not shown) [dihydronepetalactone], the “ants ceased to feed” value is listed as 50-60%.
